Reference: publication PMC6011838, “Transcriptome analysis and anaerobic C4‐dicarboxylate transport in Actinobacillus succinogenes” (MicrobiologyOpen, 2017)

Biological target: T1, Asuc_1999 (Actinobacillus succinogenes, UniProt A6VQU8)
T1 construct: untagged gene in pBAD30 derivative pMB64, expressed in E. coli IMW529 (deficient in anaerobic fumarate transport); 555 amino acids; cell suspension uptake
Assay: […] uptake, filtration assay, E. coli cell suspension
Format: cell-based
Details: anaerobic; phosphate buffer pH 7, 1 mmol/L MgSO4; 37°C; 1 min uptake; 20 mmol/L lactose preincubation; labelled compound

Row | SMILES | Km [µM]
1 | O=C(O)/C=C/C(=O)O [fumarate] | 452
2 | O=C(O)CCC(=O)O [succinate] | 364
